The text below walks through data of US9441012B2, “Fluorinated epoxyketone-based compounds and uses thereof as proteasome inhibitors” (FLUORINOV PHARMA INC., priority 2012, dated 2016).

One experiment concerns SN12C. The experiment can be described thus: NCI 60 human tumor cell line screen (SRB). Format: cell-based. The following applies: SN12C (Renal Cancer); 48 h.
In another experiment the test system is CCRF-CEM. The experiment can be described thus: NCI 60 human tumor cell line screen (SRB). Format: cell-based. The following applies: CCRF-CEM (Leukemia); 48 h.
Experiment [1] deals with high molecular weight ubiquitylated proteins in LP1 cells. The experiment can be described thus: Immunoblotting assay of ubiquitylated proteins. It is filed as cell-based. Conditions: Homo sapiens, LP-1, read-out: IC50 (increase of ubiquitylated proteins, immunoblot). On the procedure: Whole cell lysates were prepared from LP1 cells in RIPA lysis buffer. Anti-ubiquitin antibody was purchased from Cell Signaling Technology Inc, (Danvers, Mass.) and anti-tubulin antibody was purchased from Sigma-Aldrich (St. Louis, Mo.). Secondary horseradish peroxidase-conjugated goat anti-mouse or anti-rabbit IgG was purchased from Amersham Bioscience (Piscataway, N.J.). Detection was performed using an enhanced chemiluminescence kit from Pierce, (Rockford, Ill.).

Experiment [2] relates to chymotrypsin-like (CT-L) proteasome activity, KMS-11. The experiment can be described thus: Proteasome enzymatic activity (tumor cell lysates). Format: biochemical, human. Conditions: KMS-11 cell lysate; mean ± standard deviation. On the procedure: (§1) Cells were harvested by centrifugation at 1,200 rpm at room temperature. Cell pellets were washed with PBS and lysed with assay lysis buffer (50 mM HEPES (N-2-hydroxyethylpiperazine-N′-2-ethanesulfonic acid), pH 7.5; 150 mM NaCl; 1% Triton X-100; 2 mM ATP). Cell lysates were incubated on ice for 30 minutes, mixed by vortex every 5 minutes, and then centrifuged at 12,000 g for 10 minutes. The supernatant was transferred to a 96-well plate. For each assay, 10 μg of total protein were incubated for 1 hour at 37° C. with increasing concentrations (1 nM to 10 μM) of test compound diluted in assay buffer (50 mM Tris-HCl (tris(hydroxymethyl)aminomethane-HCl), pH 7.5; 150 mM NaCl). DMSO alone was used as a control in every assay plate. After incubation, a specific fluorogenic proteasome substrate was added to each assay reaction at a final concentration of 40 μM in a total volume of 100 μL. N-Succinyl-Leu-Leu-Val-Tyr-7-amino-4-methylcoumarin (Suc-Leu-Leu-Val-Tyr-AMC) was used for measuring chymotrypsin-like (CT-L) activity, t-butoxycarbonyl-Leu-Arg-Arg-7-amino-4-methylcoumarin (Boc-Leu-Arg-Arg-AMC) for trypsin-like (T-L) activity, and benzyloxycarbonyl-L-leucyl-L-leucyl-L-glutamyl-7-amino-4-methylcoumarin (Z-Leu-Leu-Glu-AMC) for caspase-like (C-L) activity. The excitation wavelength was set at 360 nm and the fluorescence emission wavelength of AMC was detected at 460 nm. The fluorescence of free AMC released during the enzymatic reaction was measured with a SpectraMax M5 fluorescent spectrophotometric plate reader (Molecular Devices, Sunnyvale, Calif.). AMC release rate was measured at 37° C. in a kinetic mode, recording every 5 minutes for 30 minutes. Experiments were performed in triplicate and repeated at least twice.
(§2) Table 9 summarizes data obtained for representative compounds of Formula I for cell viability and CT-L proteasome activity using OCI-AML-2 and KMS-11 cell lines.

Experiment [3] relates to chymotrypsin-like (CT-L) proteasome activity, OCI-AML-2. The experiment can be described thus: Proteasome enzymatic activity (tumor cell lysates). Conditions: OCI-AML-2 cell lysate; mean ± standard deviation. Format: biochemical, human. On the procedure: as §1, §2
The test system of the next experiment is OCI-AML-2. Put plainly: Cell viability assay (MTS). It is filed as cell-based. The following applies: Homo sapiens, OCI-AML2, 72 hours, mean ± standard deviation. Here is the method: (§3) Human multiple myeloma cell lines 8226, H929, JJN3, KMH11, KMS11, KMS18, LP1, MM1S, OPM2 and U266 were grown in Iscove modified Dulbecco's medium (IMDM). Human leukemia cell lines K562, OCI-AML2 and U937 were cultured in RPMI-1640 medium. Primary peripheral blood mononuclear cells were isolated from multiple myeloma patients by Ficoll density gradient centrifugation and bone marrow aspirates were obtained from multiple myeloma patients at the Princess Margaret Cancer Centre of the University Health Network (UHN; Toronto, ON, Canada). Primary cells were cultured in IMDM. The collection and use of human tissue for this study were approved by the UHN institutional ethics review board. All cell culture media were obtained from the Ontario Cancer Institute Tissue Culture Media Facility (Toronto, ON, Canada) and were supplemented with 10% fetal calf serum, […] (Hyclone, Logan, Utah). All cells were grown in a humidified incubator at 37° C. with 5% CO2.
(§4) Cellular viability was primarily assessed by 3-(4,5-dimethylthiazol-2-yl)-5-(3-carboxymethoxyphenyl)-2-(4-sulfophenyl)-2H-tetrazolium (MTS) assay according to the manufacturer's instructions (Promega; Madison, Wis.). Cells were first seeded at a density of 10,000 cells per well in tissue culture-treated 96-well plates. Two hours after seeding, cells were treated with compounds for 72 hours at concentrations as indicated. As a control, cells were treated with DMSO alone in every assay plate. Following treatment and the MTS assay, cell viability was independently confirmed by reading the optical density (O.D.) at 490 nm and by exclusion of trypan blue stain (Invitrogen; Burlington, ON, Canada). The viability of primary mononuclear cells was determined by staining with Annexin V.
as §2

The test system of the next experiment is KMS-11. The experiment can be described thus: Cell viability assay (MTS). Format: cell-based. The following applies: Homo sapiens, 72 hours, mean ± standard deviation. Here is the method:
as §3, §4, §2

The next experiment has as its system RXF 393. The experiment can be described thus: NCI 60 human tumor cell line screen (SRB). It is filed as cell-based. Conditions: RXF 393 (Renal Cancer); 48 h.

Molecules are shown by their SMILES.

In the case of `Cc1ncc(C(=O)N[C@@H](COC(F)F)C(=O)N[C@@H](COC(F)F)C(=O)N[C@@H](Cc2ccccc2)C(=O)[C@@]2(C)CO2)s1` [Example 1, 2-methyl-thiazole-5-carboxylic acid ((S)-1-{(S)-1-[(S)-1-benzyl-2-((R)-2-methyloxiranyl)-2-oxo-ethylcarbamoyl]-2-difluoromethoxyethylcarbamoyl}-2-difluoromethoxyethyl)-amide], the results for the Log10GI50 with SN12C, in the experiment with CCRF-CEM and in the experiment on RXF 393 were −6.54, −7.26 and −6.79, respectively. The Log10LC50 in the experiment with SN12C is −4.03; in the experiment with CCRF-CEM, greater than −4.00; in the experiment with RXF 393, −6.02. Also, the Log10TGI50 with SN12C is listed as −5.29; with CCRF-CEM it was greater than −4.00; in the experiment with RXF 393, −6.41. The IC50 in experiment [1] was less than 50 nM; in experiment [2], 29.6 ± 3.69 nM; in experiment [3], 39.2 ± 2.12 nM; with OCI-AML-2 it was 109 ± 25.3 nM; in the experiment with KMS-11 it was 30.9 ± 10.7 nM.
Regarding `CC(C)C[C@H](NC(=O)[C@H](Cc1ccccc1)NC(=O)[C@H](COC(F)F)NC(=O)CN1CCOCC1)C(=O)[C@@]1(C)CO1` [Example 25, (2S)-2-[[(2S)-3-(difluoromethoxy)-2-[(2-morpholinoacetyl)amino]propanoyl]amino]-N-[(1S)-3-methyl-1-[(2R)-2-methyloxirane-2-carbonyl]butyl]-3-phenyl-propanamide], the Log10GI50 is recorded as −7.39 with SN12C and −7.64 with RXF 393. The values for the Log10LC50 with SN12C and in the experiment with RXF 393 were −5.15 and −6.70, respectively. Further, the figures for the Log10TGI50 in the experiment on SN12C and in the experiment on RXF 393 were −6.67 and −7.25, respectively. The figures for the IC50 (in experiment [1]; with OCI-AML-2; in the experiment with KMS-11) were less than 50 nM, 55.6 ± 19.2 nM and 39.5 ± 7.45 nM, respectively.
Consider `C[C@]1(C(=O)[C@H](Cc2ccccc2)NC(=O)[C@H](COC(F)F)NC(=O)[C@H](COC(F)F)NC(=O)CN2CCOCC2)CO1` [Example 26, (S)-N-{(S)-1-[(S)-1-Benzyl-2-((R)-2-methyl-oxiranyl)-2-oxo-ethylcarbamoyl]-2-difluoromethoxyethyl}-3-difluoromethoxy-2-(2-morpholin-4-yl-acetylamino)-propio-namide], for which the values for the Log10GI50 in the experiment with SN12C and with RXF 393 were −7.39 and −7.64, respectively. The Log10LC50 with SN12C was −5.15; in the experiment with RXF 393 it was −6.70. In addition, the Log10TGI50 in the experiment with SN12C was −6.67; in the experiment on RXF 393, −7.25. Besides, the IC50 in experiment [2] was determined as 174 ± 434 nM; in experiment [3], 358 ± 177 nM; in the experiment with OCI-AML-2 it was 223 ± 10.3 nM; in the experiment on KMS-11, 99.7 ± 17.7 nM.
`C[C@]1(C(=O)[C@H](Cc2ccccc2)NC(=O)[C@H](Cc2ccccc2)NC(=O)[C@H](COC(F)F)NC(=O)CN2CCOCC2)CO1` [Example 29]: the Log10GI50 in the experiment on SN12C is −6.92; with CCRF-CEM it was −7.62; in the experiment with RXF 393, −7.20. In addition, the Log10LC50 with SN12C is recorded as −4.39; in the experiment with CCRF-CEM, greater than −4.00; with RXF 393, −6.31. Also, the Log10TGI50 in the experiment with SN12C is listed as −6.38; in the experiment on CCRF-CEM, greater than −4.00; in the experiment on RXF 393, −6.70. Moreover, the IC50 in experiment [2] came to 135 ± 12.3 nM; in experiment [3], 132 ± 10.4 nM; with OCI-AML-2 it was 75.9 ± 15 nM; in the experiment on KMS-11, 60.4 ± 11.2 nM.
